Our source for the IC50 and ED50 values is ChEMBL document CHEMBL1135372, “3-Aryl pyridone derivatives. Potent and selective kappa opioid receptor agonists” (Bioorg Med Chem Lett, 2002).

By IC50 is commonly meant the concentration needed to halve the response being measured.

Assay [1] has as its target T1, Kappa-type opioid receptor (Homo sapiens, UniProt P41145). The assay is described as follows: Binding affinity towards kappa opioid receptor by the displacement of [125I]-(D-Pro10)-Dynorphin A. In general terms: In a radioligand displacement assay an active substance lowers the binding of a labelled ligand.
The target in assay [2] is Mu-type opioid receptor (Homo sapiens, UniProt P35372). The assay is described as follows: Binding affinity towards mu opioid receptor by the displacement of [125I]Enkephalin.
Chain of Mu-type opioid receptor (P35372 whole entry): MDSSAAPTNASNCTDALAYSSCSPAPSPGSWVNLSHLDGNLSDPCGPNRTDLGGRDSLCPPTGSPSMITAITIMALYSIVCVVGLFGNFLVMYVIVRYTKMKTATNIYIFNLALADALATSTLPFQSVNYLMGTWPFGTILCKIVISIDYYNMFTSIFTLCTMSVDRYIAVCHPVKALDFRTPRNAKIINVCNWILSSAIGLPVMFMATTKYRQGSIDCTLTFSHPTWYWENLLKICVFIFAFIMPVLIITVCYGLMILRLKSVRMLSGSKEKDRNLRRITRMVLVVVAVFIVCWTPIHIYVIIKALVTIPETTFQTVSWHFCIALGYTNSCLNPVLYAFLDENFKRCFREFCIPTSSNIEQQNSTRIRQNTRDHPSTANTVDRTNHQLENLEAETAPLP
Assay [3] concerns the target Delta-type opioid receptor (Homo sapiens, UniProt P41143). The assay is described as follows: Binding affinity towards delta opioid receptor by the displacement of [125I]deltorphin.
For assay [4], the target named is T1, Kappa-type opioid receptor. The assay is described as follows: Functional activity in HEK293 cells overexpressing the human kappa opioid receptor was determined using a radiolabeled [35S]GTP-gamma-S, assay. The format is cell-based.

T1 sequence (P41145 whole entry): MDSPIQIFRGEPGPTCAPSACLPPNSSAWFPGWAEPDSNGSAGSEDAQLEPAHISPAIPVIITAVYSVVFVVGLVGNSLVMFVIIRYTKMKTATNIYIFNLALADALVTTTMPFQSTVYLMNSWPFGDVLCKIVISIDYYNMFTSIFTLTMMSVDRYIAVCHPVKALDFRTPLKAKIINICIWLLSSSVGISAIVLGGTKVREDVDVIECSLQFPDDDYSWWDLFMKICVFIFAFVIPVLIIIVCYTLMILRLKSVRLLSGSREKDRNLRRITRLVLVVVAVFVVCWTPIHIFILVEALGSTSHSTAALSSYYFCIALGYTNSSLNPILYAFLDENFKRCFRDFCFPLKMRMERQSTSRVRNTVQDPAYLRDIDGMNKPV
Chain of Delta-type opioid receptor (P41143 whole entry): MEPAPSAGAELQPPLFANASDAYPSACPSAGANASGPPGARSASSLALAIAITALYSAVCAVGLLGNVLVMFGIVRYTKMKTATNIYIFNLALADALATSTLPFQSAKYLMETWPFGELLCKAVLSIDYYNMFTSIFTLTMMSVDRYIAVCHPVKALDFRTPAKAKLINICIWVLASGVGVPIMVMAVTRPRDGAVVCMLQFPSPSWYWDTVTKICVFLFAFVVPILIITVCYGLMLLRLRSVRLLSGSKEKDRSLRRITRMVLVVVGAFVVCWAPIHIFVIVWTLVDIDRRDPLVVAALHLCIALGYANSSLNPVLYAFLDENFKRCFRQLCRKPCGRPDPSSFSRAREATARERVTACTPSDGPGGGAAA

On to `O=c1c(-c2cccs2)cccn1C(CN1CCCC1)c1ccccc1` (centres undefined), for which the IC50 in assay [1] came to 1180 nM.
As to `O=c1c(-c2ccccc2C(F)(F)F)cccn1C(CN1CCCC1)c1ccccc1` (centres undefined), the results for the IC50 in assay [2], in assay [3] and in assay [1] were 1680 nM, more than 10000 nM and 5.7 nM, respectively.
As for `O=c1ccc(-c2ccc(Cl)cc2)cn1C(CN1CCCC1)c1ccccc1` (centres undefined), the IC50 in assay [1] came to 524 nM.
`O=c1ccc(-c2ccc(Cl)c(Cl)c2)cn1C(CN1CCCC1)c1ccccc1` (centres undefined) gave an IC50 in assay [1] of 1490 nM.
With `O=c1c(-c2cccc(Cl)c2)cccn1C(CN1CCCC1)c1ccccc1` (centres undefined), the IC50 was 308 nM in assay [2], more than 10000 nM in assay [3] and 2.4 nM in assay [1].
Take `O=c1c(-c2ccc(Cl)cc2)cccn1C(CN1CCCC1)c1ccccc1` (centres undefined): the results for the IC50 in assay [2], in assay [3] and in assay [1] were 4840 nM, more than 10000 nM and 5.5 nM, respectively.
Consider `O=c1c(-c2ccc(Cl)c(Cl)c2)cccn1C(CN1CCCC1)c1ccccc1` (centres undefined), for which the results for the IC50 in assay [2], in assay [3] and in assay [1] were 2060 nM, more than 10000 nM and 2.3 nM, respectively.
In assay [1], `O=c1c(-c2cc3ccccc3o2)cccn1C(CN1CCCC1)c1ccccc1` (centres undefined) returned an IC50 of 271 nM.
For `O=c1c(-c2ccc(F)cc2)cccn1C(CN1CCCC1)c1ccccc1` (centres undefined), the IC50 was more than 10000 nM in assay [2], more than 10000 nM in assay [3] and 34.8 nM in assay [1].
In the case of `O=c1c(-c2ccc(OC(F)(F)F)cc2)cccn1C(CN1CCCC1)c1ccccc1` (centres undefined), the figures for the IC50 in assay [2], in assay [3] and in assay [1] were 1100 nM, more than 10000 nM and 34.2 nM, respectively.
Regarding `O=c1c(-c2ccc(C(F)(F)F)cc2)cccn1C(CN1CCCC1)c1ccccc1` (centres undefined), the figures for the IC50 in assay [2], in assay [3] and in assay [1] were 2720 nM, more than 10000 nM and 8.7 nM, respectively. This compound yielded an ED50 in assay [4] of 49.4 nM.
As to `N#Cc1cccc(-c2cccn(C(CN3CCCC3)c3ccccc3)c2=O)c1` (centres undefined), the IC50 in assay [2] is 4280 nM; in assay [3], more than 10000 nM; in assay [1], 5.3 nM.
The like results for `Cc1cccc(-c2cccn(C(CN3CCCC3)c3ccccc3)c2=O)c1` (centres undefined) were, in that order, more than 10000 nM, 639 nM and 79.3 nM.
As for `O=c1c(-c2cc(F)ccc2F)cccn1C(CN1CCCC1)c1ccccc1` (centres undefined), the IC50 in assay [2] is more than 10000 nM; in assay [3], more than 10000 nM; in assay [1] it was 22.5 nM.
For the compound `COc1ccc(Cl)cc1-c1cccn(C(CN2CCCC2)c2ccccc2)c1=O` (centres undefined), the half-maximal inhibitory concentration (IC50) was 1240 nM in assay [2], 4170 nM in assay [3] and 1.5 nM in assay [1].
Consider `COc1ccc(-c2cccn(C(CN3CCCC3)c3ccccc3)c2=O)cc1` (centres undefined), for which the values for the IC50 in assay [2], in assay [3] and in assay [1] were 1460 nM, 5210 nM and 49.4 nM, respectively.
Regarding `COc1ccccc1-c1cccn(C(CN2CCCC2)c2ccccc2)c1=O` (centres undefined), the IC50 in assay [2] is 1200 nM; in assay [3] it was more than 10000 nM; in assay [1], 19.5 nM.
`COc1ccc(F)cc1-c1cccn(C(CN2CCCC2)c2ccccc2)c1=O` (centres undefined): the IC50 was determined as 3460 nM in assay [2], 4350 nM in assay [3] and 3.4 nM in assay [1].
As to `O=c1c(-c2ccccc2)cccn1C(CN1CCCC1)c1ccccc1` (centres undefined), the IC50 was more than 10000 nM in assay [2], more than 10000 nM in assay [3] and 56.3 nM in assay [1].
Regarding `O=c1c(-c2ccc3ccccc3c2)cccn1C(CN1CCCC1)c1ccccc1` (centres undefined), the IC50 in assay [2] was 2680 nM; in assay [3] it was more than 10000 nM; in assay [1] it was 31.9 nM.
Turning to `COc1ccc(OC)c(-c2cccn(C(CN3CCCC3)c3ccccc3)c2=O)c1` (centres undefined), the IC50 was more than 5000 nM in assay [2], more than 10000 nM in assay [3] and 3.44 nM in assay [1].
Taken in the same sequence, the figures for `O=c1c(-c2cccc([N+](=O)[O-])c2)cccn1C(CN1CCCC1)c1ccccc1` (centres undefined) were 3910 nM, more than 10000 nM and 2.2 nM.
